Data on two substances can be found in patent US9243254B2, “Method for transforming a bacterium belonging to the streptococcus genus by natural competence” (priority 2009, dated 2016).

What all share (assay): Natural transformation in CDM upon addition of synthetic peptide
Holding throughout (format): cell-based, Streptococcus thermophilus

One experiment relates to S. thermophilus LMD-9. On the procedure: (§1) Similarly to the protocol used in example 4, strains LMD-9, LMG18311, CNRZ1066 and JIM8777 were pre-cultivated in M17-lactose medium. The cells of the precultures were harvested (5000 g, 9 minutes, 20° C.) and washed twice in CDM and then resuspended in CDM. The washed cells were diluted in fresh CDM medium to obtain an optical density of 0.05, and then incubated at 37° C. After 1.5 h of incubation, in one set of experiment, 1 μM of one of the tested synthetic peptides and 1 μg/mL of pGIUD0855ery DNA (in case of S. thermophilus strains), or 1 μg/ml of pG+host09 DNA (in case of S. salivarius strains) were added to the culture, whereas 1 μg/mL of DNA but no synthetic peptide was added to the second set of experiment. The cultures were grown during 6 hours and serial dilutions were plated on the surface of M17-lactose agar medium containing 2.5 μg/mL of erythromycin to measure transformation efficiency. Transformed S. thermophilus and S. salivarius cells are selected at 37° C. and 29° C., respectively.
(§2) Similarly to the protocol used in example 4, various S. thermophilus strains, including LMD-9, CNRZ1066 and LMG18311 used as controls, were pre-cultivated in M17-lactose medium. The cells of the precultures were harvested (5000 g, 9 minutes, 20° C.) and washed twice in CDM and then resuspended in CDM. The washed cells were diluted in fresh CDM medium to obtain an optical density of 0.05, and then incubated at 37° C. After 1.5 h of incubation, in one set of experiment, 1 μM of one of the tested synthetic peptides (LPYFAGCL) (SEQ ID NO: 85) and 1 μg/mL of pGIUD0855cat DNA were added to the culture, whereas 1 μg/mL of DNA but no synthetic peptide was added to the second set of experiment. Plasmid pGIUD0855cat is a pUC18-derivative containing a chloramphenicol resistance cassette flanked by 1-kb fragments corresponding to the upstream and downstream regions of stu0855. Upon transformation, it promotes the genetic replacement of stu0855 by P32-cat through homologous recombination (FIG. 7). The cultures were grown during 6 hours and serial dilutions were plated on the surface of M17-lactose agar medium containing 5 μg/mL of chloramphenicol to measure transformation efficiency. Transformed S. thermophilus cells were selected at 37° C.; when transformants were obtained, the transformation efficiency was calculated and is given in Table 9.
The overlapping PCR product was transferred through natural competence in strain LMD-9. Similarly to the protocol used in example 4, strain LMD-9 was pre-cultivated in M17-lactose medium. The cells of the precultures were harvested (5000 g, 9 minutes, 20° C.) and washed twice in CDM and then resuspended in CDM. The washed cells were diluted in fresh CDM medium to obtain an optical density of 0.05, and then incubated at 37° C. After 1.5 hour of incubation, 1 μM of LPYFAGCL (SEQ ID NO: 85) synthetic peptide and 1 μg/mL of the PCR product prepared above (joining the A, B and C fragments) were added to the culture. After the DNA uptake by the bacteria, the P32-cat cassette flanked by the two lox sites spontaneously replaces the his operon by double homologous recombination (FIG. 10). The transformation rate of the overlapping PCR was 1.1×10^−6 (160 Chloramphenicol-resistant CFU/mL). One isolate named CB15 was selected. […]

Another experiment relates to S. thermophilus LMG18311.
The next experiment concerns S. thermophilus CNRZ1066. On the procedure:
as §1, §2
Day 2: • Centrifuge Day 1—culture (centrifugation parameters: 5000 g, 9 minutes, 15° C.) and perform two washing steps with one volume (10 mL) of CDM (centrifugation parameters: 5000 g, 9 minutes, 15° C.). • Dilute the culture in 10 mL CDM to obtain an OD600nm of 0.05. • A small volume of S. thermophilus cultures (300 μL) is then transferred in white microplate with a transparent bottom (655095; Greiner, Alphen aid Rijn, The Netherlands) and is grown at 37° C. Luminescence at 595 nm and optical density at 600 nm are recorded with the automatic Synergy HT multi-mode microplate reader. The luciferase activity catalysed by LuxAB requires the presence of nonanal as substrate. In this experimental set-up, nonanal (Acros Organics ref. 204-688-5) is supplied to the cultures by placing 50 μL of a solution containing 1% nonanal diluted in mineral oil in the spaces between the wells of a covered microplate (11). […] The luminescence and absorbance are scanned every 10 minutes during 6 hours. • To perform a competence experiment, 1 μg of donor DNA is added in the 300 μL samples in the beginning of incubation. […]

Where [1] appears, read: 1 μM LPYFAGCL, 1 μg/mL pUC18_stu0855::P32cat, chloramphenicol selection.
The mark [2] stands for this setting: 1 μM PYFAGCL, 1 μg/mL pGIUD0855ery.
Setting [3] is: 1 μM peptide in CDM versus no peptide.

As for “LPYFAGCL (fragment) [synthetic peptide corresponding to a C-terminal fragment of Shp316]”, the “Chloramphenicol-resistant CFU obtained with the overlapping PCR” value in the experiment with S. thermophilus LMD-9 (1 μM LPYFAGCL, 1 μg/mL overlapping PCR product) worked out at 160 CFU/mL. Moreover, the “Transformation rate of the overlapping PCR” value in the experiment with S. thermophilus LMD-9 (1 μM LPYFAGCL, 1 μg/mL overlapping PCR product (his operon replacement by lox66-P32cat-lox71)) is 1.1×10^−6. Also, the “Transformation rate, With peptide addition” value is recorded as 5.4 × 10^−3 in the experiment with S. thermophilus LMD-9 (setting [1]), 1.3 × 10^−1 in the experiment on S. thermophilus LMG18311 (setting [1]) and 3 × 10^−2 in the experiment with S. thermophilus CNRZ1066 (setting [1]). Further, the “Calculated efficiency of transformation” value in the experiment with S. thermophilus LMG18311 (LPYFAGCL-induced competence, forty six μg of LMD-9 genomic DNA, selection on CDM agar deprived of histidine) was 0.00016 µg⁻¹.
Regarding PYFAGCL (fragment), the “Transformation rate, With peptide addition” value with S. thermophilus LMD-9 (setting [2]) is reported as 3.10 × 10^−3; in the experiment on S. thermophilus LMG18311 (setting [2]) it was 3.17 × 10^−4; in the experiment with S. thermophilus CNRZ1066 (setting [2]), 3.69 × 10^−4. Further, the “Increase of natural competence upon extracellular peptide addition” value with S. thermophilus LMD-9 (setting [3]) is reported as 10 fold. Moreover, the “Increase of efficiency of transformation upon peptide addition” value with S. thermophilus LMG18311 (setting [3]) came out at 1000 fold. Also, in the experiment with S. thermophilus CNRZ1066 (1 μM peptide, result in words), the “Complementation of the transformation defect in CDM” value is “complements the transformation defect”.
